Test results from paper PMC11345841, “Exploring 2-Sulfonylpyrimidine Warheads as Acrylamide Surrogates for Targeted Covalent Inhibition: A BTK Story” (Journal of Medicinal Chemistry, 2024).
Like-named read-outs stand apart in the source and are kept apart here.

Tests used:
Assay in all cases: KINOMEscan ScanTK
Format in all cases: binding
[1] = target: T1, JAK1(JH1domain-catalytic) (Homo sapiens, UniProt P23458)
T1 construct: JAK1(JH1domain-catalytic); purchased Eurofins DiscoverX KINOMEscan (scanTK)
T1 sequence (P23458 875-1154 limits assumed): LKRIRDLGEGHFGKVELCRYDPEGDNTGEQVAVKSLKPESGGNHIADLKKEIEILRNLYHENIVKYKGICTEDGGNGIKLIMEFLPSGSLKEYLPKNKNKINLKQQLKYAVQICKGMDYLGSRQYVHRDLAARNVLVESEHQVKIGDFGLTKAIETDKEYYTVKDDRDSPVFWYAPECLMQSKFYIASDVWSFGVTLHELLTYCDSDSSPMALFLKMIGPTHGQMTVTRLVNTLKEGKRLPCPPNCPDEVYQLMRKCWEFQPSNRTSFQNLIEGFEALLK

EGFR(T790M) = target: T2, EGFR(T790M) (Homo sapiens, UniProt P00533, T790M)
T2 construct: purchased Eurofins DiscoverX KINOMEscan (scanTK)
T2 sequence (P00533 25-1210 T790M): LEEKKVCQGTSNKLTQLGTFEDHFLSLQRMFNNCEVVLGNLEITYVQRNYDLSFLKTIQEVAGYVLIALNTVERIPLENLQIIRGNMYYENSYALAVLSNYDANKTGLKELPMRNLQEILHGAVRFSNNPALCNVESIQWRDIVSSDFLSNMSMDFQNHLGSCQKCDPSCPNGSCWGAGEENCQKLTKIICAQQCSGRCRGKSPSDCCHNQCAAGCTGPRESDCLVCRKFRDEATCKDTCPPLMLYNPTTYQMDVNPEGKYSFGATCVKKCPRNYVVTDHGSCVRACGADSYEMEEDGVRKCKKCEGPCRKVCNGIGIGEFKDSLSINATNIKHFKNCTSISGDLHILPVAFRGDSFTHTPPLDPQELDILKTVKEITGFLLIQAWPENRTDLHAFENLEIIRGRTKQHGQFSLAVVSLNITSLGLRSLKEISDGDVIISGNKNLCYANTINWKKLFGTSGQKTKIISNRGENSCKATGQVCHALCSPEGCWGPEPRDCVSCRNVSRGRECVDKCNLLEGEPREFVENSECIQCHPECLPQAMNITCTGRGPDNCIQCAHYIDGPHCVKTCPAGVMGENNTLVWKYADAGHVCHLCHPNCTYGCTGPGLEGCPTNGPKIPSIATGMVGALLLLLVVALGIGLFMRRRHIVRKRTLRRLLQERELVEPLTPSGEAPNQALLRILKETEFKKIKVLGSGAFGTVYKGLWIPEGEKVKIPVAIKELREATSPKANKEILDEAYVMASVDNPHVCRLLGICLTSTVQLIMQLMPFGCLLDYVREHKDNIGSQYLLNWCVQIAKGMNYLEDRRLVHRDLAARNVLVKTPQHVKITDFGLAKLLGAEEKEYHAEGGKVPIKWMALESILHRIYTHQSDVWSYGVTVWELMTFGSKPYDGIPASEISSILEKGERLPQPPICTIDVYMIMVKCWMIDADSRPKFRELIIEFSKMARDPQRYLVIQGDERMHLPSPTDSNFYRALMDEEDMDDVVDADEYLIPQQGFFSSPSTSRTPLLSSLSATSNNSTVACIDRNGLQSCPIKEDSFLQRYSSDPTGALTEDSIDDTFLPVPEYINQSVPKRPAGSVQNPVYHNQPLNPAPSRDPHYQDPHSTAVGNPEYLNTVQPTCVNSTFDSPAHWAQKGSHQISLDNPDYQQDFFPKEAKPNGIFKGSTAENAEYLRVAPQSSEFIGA

EGFR(L861Q) = target: T3, EGFR(L861Q) (Homo sapiens, UniProt P00533, L861Q)
T3 construct: purchased Eurofins DiscoverX KINOMEscan (scanTK)

TRKB = target: T4, TRKB (Homo sapiens, UniProt Q16620); conditions: TRKB
T4 construct: purchased Eurofins DiscoverX KINOMEscan (scanTK)
T4 sequence (Q16620 32-822): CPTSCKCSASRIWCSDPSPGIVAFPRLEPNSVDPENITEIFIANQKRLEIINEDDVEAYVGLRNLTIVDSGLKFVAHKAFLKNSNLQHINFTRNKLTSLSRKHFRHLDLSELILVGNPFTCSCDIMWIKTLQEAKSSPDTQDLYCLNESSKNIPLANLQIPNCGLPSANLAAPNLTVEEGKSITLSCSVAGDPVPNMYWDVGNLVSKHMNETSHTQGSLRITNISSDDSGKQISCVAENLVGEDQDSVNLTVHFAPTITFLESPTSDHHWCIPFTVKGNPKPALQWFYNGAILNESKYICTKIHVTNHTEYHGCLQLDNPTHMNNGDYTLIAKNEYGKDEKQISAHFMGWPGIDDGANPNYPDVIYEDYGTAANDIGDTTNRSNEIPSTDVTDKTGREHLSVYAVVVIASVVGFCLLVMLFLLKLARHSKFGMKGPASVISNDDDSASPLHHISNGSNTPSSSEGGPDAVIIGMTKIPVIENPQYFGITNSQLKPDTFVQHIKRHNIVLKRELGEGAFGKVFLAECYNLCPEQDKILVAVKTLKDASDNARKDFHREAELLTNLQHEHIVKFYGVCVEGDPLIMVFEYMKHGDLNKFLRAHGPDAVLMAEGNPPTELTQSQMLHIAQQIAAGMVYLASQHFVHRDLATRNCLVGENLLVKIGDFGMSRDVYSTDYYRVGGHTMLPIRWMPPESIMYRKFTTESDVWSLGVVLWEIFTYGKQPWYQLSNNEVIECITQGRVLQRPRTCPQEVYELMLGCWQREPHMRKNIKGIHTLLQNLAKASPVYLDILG

[2] = target: T5, TYK2(JH1domain-catalytic) (Homo sapiens, UniProt P29597)
T5 construct: TYK2(JH1domain-catalytic); purchased Eurofins DiscoverX KINOMEscan (scanTK)
T5 sequence (P29597 888-1187 limits assumed): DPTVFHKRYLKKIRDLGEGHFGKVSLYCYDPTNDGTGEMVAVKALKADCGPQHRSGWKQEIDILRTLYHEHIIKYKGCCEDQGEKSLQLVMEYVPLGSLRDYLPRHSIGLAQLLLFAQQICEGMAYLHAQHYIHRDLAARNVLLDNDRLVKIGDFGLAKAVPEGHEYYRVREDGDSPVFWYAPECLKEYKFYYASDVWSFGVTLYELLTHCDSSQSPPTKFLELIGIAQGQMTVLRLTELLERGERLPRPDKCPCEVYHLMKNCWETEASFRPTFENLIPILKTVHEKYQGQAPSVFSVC

LCK = target: T6, LCK (Homo sapiens, UniProt P06239)
T6 construct: purchased Eurofins DiscoverX KINOMEscan (scanTK)

ALK(C1156Y) = target: T7, ALK(C1156Y) (Homo sapiens, UniProt Q9UM73, C1156Y)
T7 construct: purchased Eurofins DiscoverX KINOMEscan (scanTK)

MET(Y1235D) = target: T8, MET(Y1235D) (Homo sapiens, UniProt P08581, Y1235D)
T8 construct: purchased Eurofins DiscoverX KINOMEscan (scanTK)
T8 sequence (P08581 25-1390 Y1235D): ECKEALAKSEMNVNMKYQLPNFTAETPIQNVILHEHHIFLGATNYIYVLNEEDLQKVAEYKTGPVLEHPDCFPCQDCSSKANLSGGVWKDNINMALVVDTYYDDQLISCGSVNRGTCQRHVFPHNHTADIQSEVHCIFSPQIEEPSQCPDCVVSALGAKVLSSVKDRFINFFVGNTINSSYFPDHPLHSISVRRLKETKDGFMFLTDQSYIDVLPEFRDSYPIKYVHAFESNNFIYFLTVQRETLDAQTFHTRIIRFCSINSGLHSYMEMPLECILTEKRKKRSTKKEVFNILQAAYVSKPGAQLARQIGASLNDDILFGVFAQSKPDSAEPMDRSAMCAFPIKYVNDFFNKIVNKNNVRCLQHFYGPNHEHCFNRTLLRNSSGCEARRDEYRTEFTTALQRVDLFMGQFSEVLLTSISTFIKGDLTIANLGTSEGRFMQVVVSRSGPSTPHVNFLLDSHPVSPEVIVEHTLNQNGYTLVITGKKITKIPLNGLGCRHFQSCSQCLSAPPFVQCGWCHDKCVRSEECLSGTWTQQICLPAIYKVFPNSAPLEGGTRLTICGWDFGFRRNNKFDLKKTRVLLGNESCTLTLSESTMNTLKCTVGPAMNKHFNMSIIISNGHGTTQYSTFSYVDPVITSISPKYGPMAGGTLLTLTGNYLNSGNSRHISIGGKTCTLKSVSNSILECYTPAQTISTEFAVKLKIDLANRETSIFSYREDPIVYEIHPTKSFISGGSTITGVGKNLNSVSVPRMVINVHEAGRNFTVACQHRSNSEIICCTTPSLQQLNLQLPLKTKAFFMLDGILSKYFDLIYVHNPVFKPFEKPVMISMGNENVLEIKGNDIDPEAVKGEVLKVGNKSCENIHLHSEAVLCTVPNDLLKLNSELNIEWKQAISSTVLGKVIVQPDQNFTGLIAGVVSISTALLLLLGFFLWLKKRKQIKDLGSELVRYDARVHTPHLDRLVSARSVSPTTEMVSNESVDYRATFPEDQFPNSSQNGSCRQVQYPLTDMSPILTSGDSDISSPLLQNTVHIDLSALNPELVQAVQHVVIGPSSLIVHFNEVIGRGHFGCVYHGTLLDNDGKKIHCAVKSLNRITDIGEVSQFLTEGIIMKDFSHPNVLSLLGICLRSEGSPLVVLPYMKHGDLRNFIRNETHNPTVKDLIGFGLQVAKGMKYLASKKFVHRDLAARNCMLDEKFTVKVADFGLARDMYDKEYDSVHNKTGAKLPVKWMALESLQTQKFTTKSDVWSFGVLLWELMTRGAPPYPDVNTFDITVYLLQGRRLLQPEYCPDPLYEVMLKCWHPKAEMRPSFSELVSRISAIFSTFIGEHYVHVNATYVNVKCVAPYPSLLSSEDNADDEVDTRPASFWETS

LYN = target: T9, LYN (Homo sapiens, UniProt P07948)
T9 construct: purchased Eurofins DiscoverX KINOMEscan (scanTK)

KIT = target: T10, KIT (Homo sapiens, UniProt P10721)
T10 construct: purchased Eurofins DiscoverX KINOMEscan (scanTK)
T10 sequence (P10721 26-976): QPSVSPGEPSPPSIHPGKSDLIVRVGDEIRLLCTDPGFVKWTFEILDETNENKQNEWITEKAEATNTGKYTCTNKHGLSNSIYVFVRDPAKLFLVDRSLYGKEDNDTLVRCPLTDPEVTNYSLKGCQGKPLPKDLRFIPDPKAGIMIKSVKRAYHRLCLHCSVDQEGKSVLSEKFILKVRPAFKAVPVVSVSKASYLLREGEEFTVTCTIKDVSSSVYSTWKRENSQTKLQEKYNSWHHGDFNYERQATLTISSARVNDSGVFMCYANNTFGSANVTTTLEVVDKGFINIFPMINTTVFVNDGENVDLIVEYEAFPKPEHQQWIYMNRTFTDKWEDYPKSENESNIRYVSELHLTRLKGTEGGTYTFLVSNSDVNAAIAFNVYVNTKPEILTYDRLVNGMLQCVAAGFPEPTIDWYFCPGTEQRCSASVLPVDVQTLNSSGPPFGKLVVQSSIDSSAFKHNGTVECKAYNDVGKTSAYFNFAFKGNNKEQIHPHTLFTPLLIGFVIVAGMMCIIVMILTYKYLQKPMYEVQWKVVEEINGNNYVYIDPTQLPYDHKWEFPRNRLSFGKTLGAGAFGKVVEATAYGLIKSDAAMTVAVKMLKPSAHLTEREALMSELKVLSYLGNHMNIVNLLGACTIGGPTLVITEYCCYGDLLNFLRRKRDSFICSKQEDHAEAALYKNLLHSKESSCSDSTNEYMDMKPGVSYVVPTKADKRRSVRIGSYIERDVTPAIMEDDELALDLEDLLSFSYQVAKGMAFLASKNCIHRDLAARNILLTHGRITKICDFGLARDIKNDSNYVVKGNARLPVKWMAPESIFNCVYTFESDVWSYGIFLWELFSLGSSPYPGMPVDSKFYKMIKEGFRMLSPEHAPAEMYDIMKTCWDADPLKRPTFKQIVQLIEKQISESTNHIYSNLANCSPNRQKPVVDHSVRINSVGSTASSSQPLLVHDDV

KIT(V559D) = target: T11, KIT(V559D) (Homo sapiens, UniProt P10721, V559D)
T11 construct: purchased Eurofins DiscoverX KINOMEscan (scanTK)
T11 sequence (P10721 26-976 V559D): as the sequence (P10721 26-976) above, with V534D counted along it

EPHA3 = target: T12, EPHA3 (Homo sapiens, UniProt P29320)
T12 construct: purchased Eurofins DiscoverX KINOMEscan (scanTK)
T12 sequence (P29320 21-983): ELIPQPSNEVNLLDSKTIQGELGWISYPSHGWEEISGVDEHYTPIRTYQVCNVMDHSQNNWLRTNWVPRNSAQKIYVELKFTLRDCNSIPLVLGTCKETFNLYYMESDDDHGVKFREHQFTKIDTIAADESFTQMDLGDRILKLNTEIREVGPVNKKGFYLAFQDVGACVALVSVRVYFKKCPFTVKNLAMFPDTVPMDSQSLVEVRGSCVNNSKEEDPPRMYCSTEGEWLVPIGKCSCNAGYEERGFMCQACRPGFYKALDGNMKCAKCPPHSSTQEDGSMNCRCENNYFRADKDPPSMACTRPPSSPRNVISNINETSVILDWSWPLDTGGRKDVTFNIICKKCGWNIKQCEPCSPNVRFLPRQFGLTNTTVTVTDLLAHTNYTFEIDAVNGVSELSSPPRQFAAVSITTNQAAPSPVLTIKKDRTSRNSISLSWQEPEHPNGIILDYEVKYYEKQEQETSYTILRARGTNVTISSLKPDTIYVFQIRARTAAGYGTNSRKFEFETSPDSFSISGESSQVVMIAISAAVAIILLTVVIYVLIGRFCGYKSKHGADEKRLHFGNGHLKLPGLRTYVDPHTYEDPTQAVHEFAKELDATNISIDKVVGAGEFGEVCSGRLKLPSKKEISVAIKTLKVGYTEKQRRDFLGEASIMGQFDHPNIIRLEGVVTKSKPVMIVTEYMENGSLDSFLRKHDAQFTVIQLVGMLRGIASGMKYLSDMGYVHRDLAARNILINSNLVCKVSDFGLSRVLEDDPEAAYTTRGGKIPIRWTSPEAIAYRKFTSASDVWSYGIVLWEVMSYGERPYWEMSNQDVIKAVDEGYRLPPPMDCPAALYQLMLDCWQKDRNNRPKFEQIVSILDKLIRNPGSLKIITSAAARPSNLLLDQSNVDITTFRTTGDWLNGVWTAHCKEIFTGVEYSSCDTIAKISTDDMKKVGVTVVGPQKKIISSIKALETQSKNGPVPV

RET(V804M) = target: T13, RET(V804M) (Homo sapiens, UniProt P07949, V804M)
T13 construct: purchased Eurofins DiscoverX KINOMEscan (scanTK)

[3] = target: T14, ABL1(F317L)-phosphorylated (Homo sapiens, UniProt P00519, F317L)
T14 construct: purchased Eurofins DiscoverX KINOMEscan (scanTK)

| SMILES | difference in %Control versus compound Ib at 1 µM ([1]; @1000nM) [%] | remaining binding at 1 µM ([1]; @1000nM, read-out: %Control) [%] | remaining binding at 1 µM ([1]; read-out: %Control @1000nM) [%] | difference in % of control versus compound Ib at 1 µM (EGFR(T790M); @1000nM) [%] | remaining binding at 1 µM (EGFR(T790M); @1000nM, read-out: %Control) [%] | remaining binding at 1 µM (EGFR(T790M); read-out: %Control @1000nM) [%] | difference in % of control versus compound Ib at 1 µM (EGFR(L861Q); @1000nM) [%] | remaining binding at 1 µM (EGFR(L861Q); @1000nM, read-out: %Control) [%] | remaining binding at 1 µM (EGFR(L861Q); read-out: %Control @1000nM) [%] | difference in %Control versus compound Ib at 1 µM (TRKB; @1000nM) [%] | remaining binding at 1 µM (TRKB; @1000nM, read-out: %Control) [%] | remaining binding at 1 µM (TRKB; read-out: %Control @1000nM) [%] | remaining binding at 1 µM ([2]; @1000nM, read-out: %Control) [%] | remaining binding at 1 µM ([2]; read-out: %Control @1000nM) [%] | remaining binding at 1 µM (LCK; @1000nM, read-out: %Control) [%] | remaining binding at 1 µM (LCK; read-out: %Control @1000nM) [%] | difference in %Control versus compound Ib at 1 µM (ALK(C1156Y); @1000nM) [%] | remaining binding at 1 µM (ALK(C1156Y); @1000nM, read-out: %Control) [%] | remaining binding at 1 µM (ALK(C1156Y); read-out: %Control @1000nM) [%] | remaining binding at 1 µM (MET(Y1235D); @1000nM, read-out: %Control) [%] | other results |
| --- | --- | --- | --- | --- | --- | --- | --- | --- | --- | --- | --- | --- | --- | --- | --- | --- | --- | --- | --- | --- | --- |
| Cc1cnc(S(C)(=O)=O)nc1N1CCCC(n2nc(-c3ccc(Oc4ccccc4)cc3)c3c(N)ncnc32)C1 (stereo not drawn) [Compound 8a, 1-(1-(5-Methyl-2-(methylsulfonyl)pyrimidin-4-yl)piperidin-3-yl)-3-(4-phenoxyphenyl)-1H-pyrazolo[3,4-d]pyrimidin-4-amine] | 0 | 94 | 94 | 69.5 | 70 | 70 | 81.2 | 82 | 82 | -17 | 75 | 75 | 89 | 89 | 2 | 2 | -13 | 85 | 85 | 100 | remaining binding at 1 µM (MET(Y1235D); read-out: %Control @1000nM): 100%; remaining binding at 1 µM (LYN; @1000nM, read-out: %Control): 21%; remaining binding at 1 µM (LYN; read-out: %Control @1000nM): 21%; difference in %Control versus compound Ib at 1 µM (KIT; @1000nM): 20%; remaining binding at 1 µM (KIT; @1000nM, read-out: %Control): 61%; remaining binding at 1 µM (KIT; read-out: %Control @1000nM): 61%; remaining binding at 1 µM (KIT(V559D); @1000nM, read-out: %Control): 37%; remaining binding at 1 µM (KIT(V559D); read-out: %Control @1000nM): 37%; difference in % of control versus compound Ib at 1 µM (EPHA3; @1000nM): 5%; remaining binding at 1 µM (EPHA3; @1000nM, read-out: %Control): 81%; remaining binding at 1 µM (EPHA3; read-out: %Control @1000nM): 81%; remaining binding at 1 µM (RET(V804M); @1000nM, read-out: %Control): 93%; remaining binding at 1 µM (RET(V804M); read-out: %Control @1000nM): 93%; difference in %Control from compound Ib at 1 µM ([3]; @1000nM): 15%; remaining binding at 1 µM ([3]; @1000nM, read-out: %Control): 52%; remaining binding at 1 µM ([3]; read-out: %Control @1000nM): 52% |
| COC(=O)c1cnc(S(C)(=O)=O)nc1N1CCCC(n2nc(-c3ccc(Oc4ccccc4)cc3)c3c(N)ncnc32)C1 (stereo not drawn) [Compound 8b, Methyl 4-(3-(4-Amino-3-(4-phenoxyphenyl)-1H-pyrazolo[3,4-d]pyrimidin-1-yl)piperidin-1-yl)-2-(methylsulfonyl)pyrimidine-5-carboxylate] | 3 | 97 | 97 | 41.5 | 42 | 42 | 56.2 | 57 | 57 | 7 | 99 | 99 | 95 | 95 | 8.3 | 8.3 | -8 | 90 | 90 | 94 | remaining binding at 1 µM (MET(Y1235D); read-out: %Control @1000nM): 94%; remaining binding at 1 µM (LYN; @1000nM, read-out: %Control): 49%; remaining binding at 1 µM (LYN; read-out: %Control @1000nM): 49%; difference in %Control versus compound Ib at 1 µM (KIT; @1000nM): 30%; remaining binding at 1 µM (KIT; @1000nM, read-out: %Control): 71%; remaining binding at 1 µM (KIT; read-out: %Control @1000nM): 71%; remaining binding at 1 µM (KIT(V559D); @1000nM, read-out: %Control): 75%; remaining binding at 1 µM (KIT(V559D); read-out: %Control @1000nM): 75%; difference in % of control versus compound Ib at 1 µM (EPHA3; @1000nM): 1%; remaining binding at 1 µM (EPHA3; @1000nM, read-out: %Control): 77%; remaining binding at 1 µM (EPHA3; read-out: %Control @1000nM): 77%; remaining binding at 1 µM (RET(V804M); @1000nM, read-out: %Control): 90%; remaining binding at 1 µM (RET(V804M); read-out: %Control @1000nM): 90%; difference in %Control from compound Ib at 1 µM ([3]; @1000nM): 16%; remaining binding at 1 µM ([3]; @1000nM, read-out: %Control): 53%; remaining binding at 1 µM ([3]; read-out: %Control @1000nM): 53% |
